Values quoted from earlier work in US10314873B2, “Method of treatment of diseases using hoodia extracts” (HADASIT MEDICAL RESEARCH SERVICES & DEVELOPMENT LTD., priority 2008, dated 2019).

Experiments:
Liver = details: P57 studies
hypothalamic neurons = details: icv injection of purified P57

C/C=C(\C)C(=O)O[C@@H]1C[C@H]2[C@@H](CC=C3C[C@@H](O[C@H]4C[C@H](OC)[C@H](O[C@H]5C[C@H](OC)[C@H](O[C@@H]6O[C@H](C)[C@@H](O)[C@H](OC)[C@H]6O)[C@@H](C)O5)[C@@H](C)O4)CC[C@@]32C)[C@@]2(O)CC[C@H](C(C)=O)[C@@]12C [P57, (3β,12β,14β)-3-[(O-6-Deoxy-3-O-methyl-β-D-glucopyranosyl-(1→4)-O-2,6-dideoxy-3-O-methyl-β-D-ribohexopyranosyl-(1→4)-2,6-dideoxy-3-O-methyl-β-D-ribo-hexopyranosyl)oxy]-14-hydroxy-12-[[(2E)-2-methyl-1-oxo-2-butenyl]oxy]pregn-5-en-20-one]
reduction of liver ATP content (Liver): about 60% | increase of ATP content in hypothalamic neurons (hypothalamic neurons): 50-150%
